Reference: the supplement of paper PMC4862054

Assays:
Assay in all cases: normalised response (% of control), CellTiter-Glo; higher = more viable cells (100 = DMSO, 0 = benzethonium chloride kill control)
Settings in all cases: incubation time: 72 h
DU-4475 = tested on: DU-4475
Summary of the method: (§1)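 Plates were normalised with 0.1 % DMSO as 100 and a positive kill control as 0. Breast cancer cell lines in 20 µl suspension had been seeded into 384-well plates with compound at 5 concentrations in 10-fold steps over a compound-specific 10,000-fold range, incubated 72 h, and read for CellTox Green fluorescence (485/520 nm) followed by CellTiter-Glo luminescence. Each value is the normalised signal at a single concentration.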

HCC1599 = tested on: HCC1599
Summary of the method: as §1

MDA-MB-468 = tested on: MDA-MB-468
Summary of the method: as §1

HDQ-P1 = tested on: HDQ-P1
Summary of the method: as §1

CAL-85-1 = tested on: CAL-85-1
Summary of the method: as §1

MDA-MB-231 = tested on: MDA-MB-231
Summary of the method: as §1

MCF-10A = tested on: MCF-10A
Summary of the method: as §1

Cc1sc2c(c1C)C(c1ccc(Cl)cc1)=N[C@@H](CC(=O)OC(C)(C)C)c1nnc(C)n1-2 [(+)JQ1] (10000 nM)
normalised response (DU-4475): 20.4%
normalised response (HCC1599): 85.5%
normalised response (MDA-MB-468): 36.6%
normalised response (HDQ-P1): 71.1%
normalised response (CAL-85-1): 27.9%
normalised response (MDA-MB-231): 64.2%
normalised response (MCF-10A): 46.5%

CC1(C)CNc2cc(NC(=O)c3cccnc3NCc3ccncc3)ccc21 [Motesanib] (10000 nM)
normalised response (DU-4475): 98.6%
normalised response (HCC1599): 107%
normalised response (MDA-MB-468): 87.6%
normalised response (HDQ-P1): 92.5%
normalised response (CAL-85-1): 95.8%
normalised response (MDA-MB-231): 93.5%
normalised response (MCF-10A): 95.4%

CC(=O)O[C@@]12CO[C@@H]1C[C@H](O)[C@@]1(C)C(=O)[C@H](O)C3=C(C)[C@@H](OC(=O)[C@H](O)[C@@H](NC(=O)OC(C)(C)C)c4ccccc4)C[C@@](O)([C@@H](OC(=O)c4ccccc4)[C@H]21)C3(C)C [Docetaxel] (1000 nM)
normalised response (DU-4475): 44%
normalised response (HCC1599): 29.6%
normalised response (MDA-MB-468): 34.9%
normalised response (HDQ-P1): 64.2%
normalised response (CAL-85-1): 28.9%
normalised response (MDA-MB-231): 28.5%
normalised response (MCF-10A): 48%

O=C1CN2Cc3c(ccc(Cl)c3Cl)N=C2N1 [Anagrelide] (10000 nM)
normalised response (DU-4475): 98.9%
normalised response (HCC1599): 97%
normalised response (MDA-MB-468): 92%
normalised response (HDQ-P1): 90.9%
normalised response (CAL-85-1): 94.4%
normalised response (MDA-MB-231): 99.5%
normalised response (MCF-10A): 105%

Nc1nc2[nH]cnc2c(=S)[nH]1 [Thioguanine] (10000 nM)
normalised response (DU-4475): 24.1%
normalised response (HCC1599): 28.2%
normalised response (MDA-MB-468): 48.9%
normalised response (HDQ-P1): 31.8%
normalised response (CAL-85-1): 51.7%
normalised response (MDA-MB-231): 33.4%
normalised response (MCF-10A): 66.9%

CC[C@@H]1C(=O)OC[C@@H]1Cc1cncn1C [Pilocarpine] (40000 nM)
normalised response (DU-4475): 95.7%
normalised response (HCC1599): 104%
normalised response (MDA-MB-468): 96%
normalised response (HDQ-P1): 91.9%
normalised response (CAL-85-1): 94.6%
normalised response (MDA-MB-231): 93.4%
normalised response (MCF-10A): 99.1%

Oc1ncnc2[nH]ncc12 [Allopurinol] (10000 nM)
normalised response (DU-4475): 99.7%
normalised response (HCC1599): 102%
normalised response (MDA-MB-468): 97.9%
normalised response (HDQ-P1): 95.1%
normalised response (CAL-85-1): 106%
normalised response (MDA-MB-231): 103%
normalised response (MCF-10A): 105%

Nc1ncn([C@@H]2O[C@H](CO)[C@@H](O)[C@H]2O)c(=O)n1 [Azacitidine] (10000 nM)
normalised response (DU-4475): 60.7%
normalised response (HCC1599): 76.1%
normalised response (MDA-MB-468): 17%
normalised response (HDQ-P1): 63%
normalised response (CAL-85-1): 106%
normalised response (MDA-MB-231): 68%
normalised response (MCF-10A): 77%

Cn1cnc2c(F)c(Nc3ccc(Br)cc3Cl)c(C(=O)NOCCO)cc21 [Selumetinib] (10000 nM)
normalised response (DU-4475): 0.53%
normalised response (HCC1599): 72.7%
normalised response (MDA-MB-468): 69.9%
normalised response (HDQ-P1): 56.3%
normalised response (CAL-85-1): 61%
normalised response (MDA-MB-231): 62.4%
normalised response (MCF-10A): 31.8%

COc1cc2c(cc1O)CC[C@@H]1[C@@H]2CC[C@]2(C)[C@@H](O)CC[C@@H]12 [2-methoxyestradiol] (10000 nM)
normalised response (DU-4475): 42.2%
normalised response (HCC1599): 31.6%
normalised response (MDA-MB-468): 34.4%
normalised response (HDQ-P1): 73.7%
normalised response (CAL-85-1): 33.3%
normalised response (MDA-MB-231): 51.9%
normalised response (MCF-10A): 67.1%

Cn1cc(C2=Nc3cc(NC(=O)C(N)C4CCCCC4)cc4c3C2=CNNC4=O)cn1 (centres undefined) (10000 nM)
normalised response (DU-4475): 48.4%
normalised response (HCC1599): 10.9%
normalised response (MDA-MB-468): 12.4%
normalised response (HDQ-P1): 48.6%
normalised response (CAL-85-1): 26.7%
normalised response (MDA-MB-231): 37.3%
normalised response (MCF-10A): 38.6%

CC(C)(C)c1cnc(CSc2cnc(NC(=O)C3CCNCC3)s2)o1 [SNS-032] (10000 nM)
normalised response (DU-4475): 10.3%
normalised response (HCC1599): 7.5%
normalised response (MDA-MB-468): 6.47%
normalised response (HDQ-P1): 24.3%
normalised response (CAL-85-1): 7.47%
normalised response (MDA-MB-231): 8.77%
normalised response (MCF-10A): 17.1%
